Measurements from paper PMC4222410, “Gold(I)-catalysed synthesis of a furan analogue of thiamine pyrophosphate” (Beilstein Journal of Organic Chemistry, 2014).
pKi: −log10 of the molar value.

Target: T1, pyruvate decarboxylase (ZmPDC) (Zymomonas mobilis, UniProt P06672)
T1 construct: gene pdc; N-terminal His6-tag, pET28a, overexpressed in E. coli; tetramer (dimer of dimers)
Assay: coupled PDC/ADH assay (NADH, […] nm); time-course inactivation of apo-PDC and equilibrium competition with ThDP
Format: biochemical

T1 sequence (P06672 whole entry): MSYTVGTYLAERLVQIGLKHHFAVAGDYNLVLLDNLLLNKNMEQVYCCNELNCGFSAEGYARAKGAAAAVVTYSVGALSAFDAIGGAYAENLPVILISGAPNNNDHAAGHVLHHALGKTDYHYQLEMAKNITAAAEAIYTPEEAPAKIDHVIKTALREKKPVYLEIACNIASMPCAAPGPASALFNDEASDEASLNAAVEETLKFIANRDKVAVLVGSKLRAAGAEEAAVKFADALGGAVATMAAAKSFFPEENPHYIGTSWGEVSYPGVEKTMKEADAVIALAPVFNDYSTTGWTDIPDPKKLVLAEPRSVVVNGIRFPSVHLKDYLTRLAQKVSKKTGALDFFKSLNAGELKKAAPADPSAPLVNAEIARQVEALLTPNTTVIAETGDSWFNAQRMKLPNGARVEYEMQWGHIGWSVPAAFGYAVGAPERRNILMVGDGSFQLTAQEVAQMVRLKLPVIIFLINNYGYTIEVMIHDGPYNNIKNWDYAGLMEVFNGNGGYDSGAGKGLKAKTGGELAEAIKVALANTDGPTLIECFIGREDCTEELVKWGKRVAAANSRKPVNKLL

## Cc1ncc(Cc2coc(CCOP(=O)(O)OP(=O)(O)O)c2)c(N)n1 [compound 17, furan analogue of ThDP]
  pKi: 10.49
